The values that follow come from patent publication US6841661B2, “Glycopeptide antibacterial compounds, compositions containing same and methods of using same” (Princeton Univerisity, priority 1999, dated 2005).

≈ marks a conversion by molar mass, not a printed value. Read-outs that look alike come from different tables or passages of the source.

Test [1] concerns E. faecium CL 5053 (VanA). Nature of the test: microbe, parasite or virus in culture. The class given is cell-based. The conditions noted are these: for MIC, CL5053: E. faecium CL 5053 (VanA). Summed up:
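Twofold broth microdilution per modified NCCLS M7-A4, 35 °C. Enterococci and VISA/MRSA in BHI (VISA/MRSA precultured in TSB + 10% HS), E. coli in MH II. Inocula ~1-5×10^6 CFU/ml for enterococci, ~3-7×10^5 CFU/ml otherwise. MIC is the lowest concentration with no visible growth, read at 18-20 hr (E. coli) or 22-24 hr.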

Test [2] has as its system E. coli ASP #50 (envA+). Nature of the test: In vitro MIC panel assay (NCCLS broth microdilution). The conditions noted are these: Escherichia coli. The class given is cell-based. An excerpt: (§1) National Committee for Clinical Laboratory Standards (NCCLS) guidelines [Methods for Dilution Antimicrobial Susceptibility Tests for Bacteria that Grow Aerobically-Fourth Edition; Approved Standard (NCCLS Document M7-A4, January 1997)] are used to establish the assay, although variations are made to optimize the published method according to the specific needs of the present investigation.
(§2) The test panel currently includes eight enterococci and 13 staphylococci, which are selected based upon their antibiotic susceptibility profiles. The methicillin-sensitive Staphylococcus aureus (MSSA) strain MB2985 (Smith isolate) is used to assesses the potential for serum protein binding of the compounds. The paired Gram-negative strains ASP #49 (envA-) and ASP #50 (envA+) (M. Salvatore/N. Lee) are included to judge membrane effects. Table 3 presents a detailed description of the strains included in the panel, including some of the sources of the strains of bacteria.
(§3) The glycopeptide antibiotic teicoplanin is included whenever possible.
(§4) TSB, containing 10% HS* for vancomycin intermediate S. aurcus/methicillin-resistant S. aureus (VISA/MRSA) strains, is inoculated from an appropriate source (frozen broth or agar slant) and grown approximately 17 hr at 35° C. with shaking at 220 rpm. Cultures are grown in tubes with a volume of 5 ml for enterococci and 2 ml for all other strains.
(§5) Four milliliter (4 ml) overnight culture is added to 36 ml physiological saline to obtain tenfold dilutions (enterococci). Overnight culture (0.4 ml) is added to 39.6 ml saline to obtain 100-fold dilutions (all strains except enterococci). Diluted cultures are maintained on ice until time of inoculation of test plates.
(§6) The number of CFU/mL is determined on BHI agar plates, although this is not done routinely because titers of overnight cultures are relatively constant. The test media include: • BHI for enterococci and VISA/MRSA; • MH II (i.e., cation-adjusted Mueller-Hinton broth) for MRS, MSS and E. coli.; • MH II+HSA for MSSA is prepared as follows: • a. 2×MHII+86mg/ml HSA • b. Dissolve 4.3 g HSA in 50 ml autoclaved 2x MH II. • c. pH to 7.0 by adding 2M MOPS, sodium. • d. Filter sterilize using 0.22 μm Coming cellulose acetate filter, used because of reported low protein binding. • e. 1×MH II+43 mg/ml HSA • f. Dilute the 2×medium twofold and filter as above. 5.8.6. Preparation of Test Plates
(§7) Using a Denley liquid handling system (or similar automatic device), 100 μ1×medium is added to each well in columns 2-12 of a 96-well microtiter dish. Using a multichannel pipettor, 100 μl 2×medium is added to each well in column 1. Plates may be filled on the day prior to assay, wrapped in plastic bags and refrigerated.
(§8) Vancomycin, Schering 29482, and teicoplanin are prepared on a weight per volume basis using 10 mM 3-(N-morpholino)propane-sulfonic acid (MOPS) buffer pH 7. Test compounds are received in solution in appropriate solvent (typically as 1 mg/ml in DMSO) or are dissolved in appropriate solvent prior to further dilution in 10 mM MOPS buffer, ph7. Consistent with NCCLS guidelines, antibiotics are handled aseptically but are not otherwise sterilized.
(§9) 100 μl appropriately diluted antibiotic solution is added to the first well of the designated row of the 96-well microtiter dish and serially diluted by twofold across the row using the Denley liquid handling system. With the aid of a Dynatech NEC 2000 inoculator, each well of the microtiter dish is inoculated with 1.5 μl diluted overnight culture, yielding approximately 1-5×10^6 CFU/ml for enterococci and approximately 3-7×10^5 CFU/ml for all other strains. Dishes are placed in stacks of no more than five, wrapped in plastic bags and incubated at 35° C. • Indication of result(s) type (% INH, IC50, Zone size, etc.) • MIC=minimum inhibitory concentration ps 5.8.9. Interpretation of the Results on the Basis of Activity […]
For orientation: Broth dilution looks for growth in wells or tubes with falling amounts of substance.

In test [3] the test system is E. faecalis MB2864. Described as above. The conditions noted are these: Enterococcus faecalis. The class given is cell-based.
From the text: as §1, §2, §3, §4, §5, §6, §7, §8, §9

In test [4] the test system is MRCNS CL 171 (S. haem.). The description is as above. The class given is cell-based.
From the text: as §1, §2, §3, §4, §5, §6, §7, §8, §9

Test [5] relates to MRCNS CL 227 (S. hom.). The description is as above. The class given is cell-based.
From the text: as §1, §2, §3, §4, §5, §6, §7, §8, §9

Test [6] has as its system MRCNS CL 546 (S. hom.). The description is as above. It is filed as cell-based.
From the text: as §1, §2, §3, §4, §5, §6, §7, §8, §9

Test [7] concerns MRSA MH 76. The test is described as above. The class given is cell-based, Staphylococcus aureus. The following applies: Staphylococcus aureus, MRSA.
From the text: as §1, §2
The glycopeptide antibiotic teicoplanin is included whenever possible. […]
The number of CFU/mL is determined on BHI agar plates, although this is not done routinely because titers of overnight cultures are relatively constant. […]

For test [8], the system named is Staphylococcus aureus strain MB2985. In words: In vivo mouse methicillin-sensitive Staphylococcus aureus septicemia protection. Details: species or system ICR female mice. As for the experimental part:
Selected compounds of the invention are tested in an in vivo mouse model. Single dose subcutaneous antibiotic protection from septicemic infections is measured as described by Gill, C. J., J. J. Jackson, L. Gerckens, B. Pelak, R. Thompson, J. Sundelof, H. Kropp and H. Rosen. Antimicrob. Agents Chemother. 42:1996-2001 (1998). Survival is monitored for seven days. ED50's and LD50's are determined by the method of Knudsen and Curtis. J. Am. Stat. Assoc. 42:282-296 (1947). Septicemia is induced in 20 gram ICR (derived from CD-I) female mice by intraperitoneal infection with Staphylococcus aureus strain MB2985. Infection is given i.p. in Brain Heart Broth (BHB) at an infectious inoculum of 1.8×10^7 cfu/mouse. Drug is administered subcutaneously immediately after the infection is initiated.

Test [9] has as its system CL 4931, CL 5053, CL 5242 and CL 4877. It is filed as cell-based, E. faecium, E. faecalis. The essentials: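 NCCLS-based microdilution, 35 °C. Media: BHI for VanB E. faecalis and VISA/MRSA, MH II for E. coli envA-. Inoculum: enterococci ~1-5×10^6 CFU/ml, others ~3-7×10^5 CFU/ml. Growth read at 22-24 hr (E. coli 18-20 hr).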
[10] abbreviates: mouse septicemia, S. aureus 2985 i.p. 1.8 × 10^7 cfu/mouse, single s.c. dose at 0 hr, survival seven days.

For orientation: ED50 means the dose at which the effect has come halfway, by size or by number of responders. For `CN[C@H](CC(C)C)C(=O)N[C@H]1C(=O)N[C@@H](CC(N)=O)C(=O)N[C@H]2C(=O)N[C@H]3C(=O)N[C@H](C(=O)N[C@H](C(=O)O)c4cc(O)cc(O)c4-c4cc3ccc4O)[C@H](O)c3ccc(c(Cl)c3)Oc3cc2cc(c3O[C@@H]2O[C@H](CO)[C@@H](O)[C@H](O)[C@H]2O[C@H]2C[C@](C)(N)[C@H](O)[C@H](C)O2)Oc2ccc(cc2Cl)[C@H]1O` [Vancomycin, vancomycin, reference compound], the MIC came out at 2050 µg/mL (≈ 1410 µM) in [1] (Enterococcus faecium); 256 µg/mL (≈ 177 µM) in test [2]; 2 µg/mL (≈ 1.38 µM) in test [3]; 2 µg/mL (≈ 1.38 µM) in test [4]; 1 µg/mL (≈ 0.69 µM) in [5]; 1 µg/mL (≈ 0.69 µM) in test [6]. Also, in [7], the MIC was 1 µg/mL (≈ 0.69 µM). The MIC, CL5053 in [1] (Table 9) and in test [1] (Table 10) was 2050 µg/mL (≈ 1410 µM) throughout. Besides, the “CL5053 (in vitro testing)” value in test [1] (Tables 7 and 8, unit not given) is given as 2048. In test [8] (S. aureus 2985, ratio of s.c. ED50 to MIC), the ED50/MIC is listed as 2.33. The compound also gave an ED50 in [8] (Staphylococcus aureus, MB2985, mouse septicemia, S. aureus 2985 i.p. 1.8 × 10^7 cfu/mouse, single s.c. dose at 0 hr, survival seven days) of 1.17 mg/kg. Further, the “ED0 (s.c.)” value in test [8] (setting [10]) is listed as “≦0.195 mg/kg”. For the same compound, in test [8] (setting [10]), the “ED100 (s.c.)” value is reported as 3.125 mg/kg. The Mean in [9] (Table 9, mean MIC over CL4931, CL5053, CL5242, CL4877) is recorded as 1664.0; in test [9] (Table 10, mean MIC over CL4931, CL5053, CL5242, CL4877), 1536.0; in test [9] (mean of CL4931, CL5053, CL5242, CL4877, unit not given) it was 1664.0.
